Tests used:
Haemonchus contortus = assay: Activity against Haemonchus contortus (LD99); settings: dose required to kill 99% of the sample of Haemonchus contortus
Description: (§1) Exemplified compounds of Formula 1 are listed by Tables 1a and 1b, above. The activity of these compounds against Haemonchus contortus and cat fleas (Ctenocephalides felis) is summarized by Table 7, below.
The LD99 value is the dose, expressed as μg/ml, that was required to kill 99% of the sample of Haemonchus contortus.

[1] = system: cat fleas (Ctenocephalides felis); assay: Contact activity against cat fleas (LC50, % kill); settings: for % Kill: percent of a sample of cat fleas killed at a concentration of 1.26 μg/cm^2; for pest or weed control at 1.26 µg/cm2, 1.26 µg/cm2: Ctenocephalides felis, read-out: % Kill; for LC50: concentration required to kill 50% of the sample of cat fleas on contact
Description: as §1

| SMILES | LD99 (Haemonchus contortus) | % Kill [1] | EC99 (Haemonchus contortus) | pest or weed control at 1.26 µg/cm2, 1.26 µg/cm2 [1] | LC50 [1] |
| --- | --- | --- | --- | --- | --- |
| N#C/C(=C\c1ccc[nH]1)c1cccc(Cl)c1 [Compound 1] | 0.75 µg/mL | 28% | – | – | – |
| N#C/C(=C\c1ccc[nH]1)c1ccc(Cl)cc1 [Compound 2, (Z)-2-(4-Chloro-phenyl)-3-(1H-pyrrol-2-yl)acrylonitrile] | – | – | 0.406 µg/mL | 95% | 0.17 μg/cm^2 |
| N#C/C(=C\c1cc(Cl)c(Cl)[nH]1)c1ccc(Cl)cc1 [Compound 3] | 3 µg/mL | 15% | – | – | – |
| N#C/C(=C\c1ccc[nH]1)c1ccc(C(F)(F)F)cc1 [Compound 4] | 0.625 µg/mL | 20% | – | – | – |
| Cn1cccc1/C=C(\C#N)c1cccc(Cl)c1 [Compound 5] | 3 µg/mL | 6% | – | – | – |
| Cn1cccc1/C=C(\C#N)c1ccc(Cl)cc1 [Compound 6, (Z)-2-(4-Chloro-phenyl)-3-(1-methyl-1H-pyrrol-2-yl)acrylonitrile] | – | – | 1.88 µg/mL | 13% | – |
| CCOCn1cccc1/C=C(\C#N)c1ccc(Cl)cc1 [Compound 7, (Z)-2-(4-Chloro-phenyl)-3-(1-ethoxymethyl-1H-pyrrol-2-yl)acrylonitrile] | – | – | 5.5 µg/mL | 6% | – |
| CCOCn1cccc1/C=C(\C#N)c1ccc(C(F)(F)F)cc1 [Compound 8] | 5 µg/mL | 6% | – | – | – |
| N#C/C(=C\c1ccc[nH]1)c1cccc(C(F)(F)F)c1 [Compound 9] | 0.938 µg/mL | 56% | – | – | 9.94 μg/cm^2 |
| N#C/C(=C\c1ccc[nH]1)c1cccc(F)c1 [Compound 10] | 1.625 µg/mL | 78% | – | – | 0.78 μg/cm^2 |
| N#C/C(=C\c1cc(Br)c[nH]1)c1ccc(C(F)(F)F)cc1 [Compound 11] | — (the symbol ‘—’ indicates tested but inactive up to 15 μg/ml) | 18% | – | – | – |
| N#C/C(=C\c1cc(Br)c[nH]1)c1cccc(C(F)(F)F)c1 [Compound 12] | 3.25 µg/mL | – | – | – | – |
| N#C/C(=C\c1ccc[nH]1)c1ccc(Cl)cc1Cl [Compound 13] | 3 µg/mL | 8% | – | – | – |
| COc1ccc(/C(C#N)=C/c2ccc[nH]2)cc1 [Compound 14] | 1.5 µg/mL | 31% | – | – | – |
| CC(C)(C)c1ccc(/C(C#N)=C/c2ccc[nH]2)cc1 [Compound 15] | 3.25 µg/mL | 87% | – | – | 0.478 μg/cm^2 |
| Cc1ccccc1/C(C#N)=C/c1ccc[nH]1 [Compound 16, (Z)-2-(2-Methyl-phenyl)-3-(1H-pyrrol-2-yl)acrylonitrile] | – | – | 3.75 µg/mL | 100% | 0.076 μg/cm^2 |
| N#C/C(=C\c1ccc[nH]1)c1ccccc1 [Compound 17] | 0.469 µg/mL | 98% | – | – | 0.259 μg/cm^2 |
| N#C/C(=C\c1ccc[nH]1)c1ccc(-c2ccccc2)cc1 [Compound 18] | 7.5 µg/mL | 46% | – | – | – |
| N#C/C(=C\c1ccc[nH]1)c1ccc2c(c1)OCO2 [Compound 19, 2-(3,4-methylenedioxy)phenyl-3-(1H-pyrrol-2-yl)acrylonitrile] | – | – | 6 µg/mL | 26% | – |
| N#C/C(=C\c1ccc[nH]1)c1ccc(C#N)cc1 [Compound 20] | 10 µg/mL | 44% | – | – | – |
| Cn1cccc1/C=C(\C#N)c1ccc(C(F)(F)F)cc1 [Compound 21] | — (the symbol ‘—’ indicates tested but inactive up to 15 μg/ml) | 24% | – | – | – |
| Cn1cccc1/C=C(\C#N)c1cccc(C(F)(F)F)c1 [Compound 22] | 5.5 µg/mL | 19% | – | – | – |

| SMILES | LD99 (Haemonchus contortus) | % Kill [1] | EC99 (Haemonchus contortus) | pest or weed control at 1.26 µg/cm2, 1.26 µg/cm2 [1] | LC50 [1] |
| --- | --- | --- | --- | --- | --- |
| N#C/C(=C\c1cc(Br)c[nH]1)c1ccc(Cl)cc1 [Compound 23] | 0.469 µg/mL | 23% | – | – | – |
| N#C/C(=C\c1ccc[nH]1)c1ccccc1Cl [Compound 24] | 2.75 µg/mL | 19% | – | – | – |
| N#C/C(=C\c1ccc[nH]1)c1ccccc1F [Compound 25] | 2.5 µg/mL | 92% | – | – | 0.594 μg/cm^2 |
| Cc1ccc(/C(C#N)=C/c2ccc[nH]2)cc1 [Compound 26] | 0.938 µg/mL | 69% | – | – | – |
| N#C/C(=C\c1ccc[nH]1)c1ccc(Cl)c(Cl)c1 [Compound 27] | 0.406 µg/mL | 78% | – | – | – |
| N#C/C(=C\c1ccc[nH]1)c1ccc(F)cc1 [Compound 28] | 2.5 µg/mL | 19% | – | – | 0.295 μg/cm^2 |
| N#C/C(=C\c1cc(Br)c[nH]1)c1ccc(Cl)c(Cl)c1 [Compound 29] | 5 µg/mL | 15% | – | – | – |
| N#C/C(=C\c1cc(Br)c[nH]1)c1ccc(F)cc1 [Compound 30] | 11 µg/mL | 18% | – | – | – |
| N#C/C(=C\c1cc(Br)c[nH]1)c1cccc(F)c1 [Compound 31] | 1.75 µg/mL | 27% | – | – | – |
| N#C/C(=C\c1ccc[nH]1)c1cccc2ccccc12 [Compound 32, 2-(1-naphthyl)-3-(1H-pyrrol-2-yl)acrylonitrile] | – | – | 0.234 µg/mL | 42% | – |
| N#C/C(=C\c1ccc[nH]1)c1ccc(Br)cc1 [Compound 33] | 3 µg/mL | 15% | – | – | – |
| N#CC(=Cc1cc(Br)c[nH]1)c1cccc2ccccc12 [Compound 34, 2-(1-naphthyl)-3-(4-bromo-1H-pyrrol-2-yl)acrylonitrile] | – | – | 0.813 µg/mL | 21% | – |
| N#C/C(=C\c1ccc[nH]1)c1ccccc1 [Compound 35] | — (the symbol ‘—’ indicates tested but inactive up to 15 μg/ml) | 21% | – | – | – |
| N#C/C(=C\c1ccc[nH]1)c1ccc(I)cc1 [Compound 36] | 0.688 µg/mL | 14% | – | – | – |
| N#C/C(=C\c1ccc[nH]1)c1ccccc1C#N [Compound 37] | — (the symbol ‘—’ indicates tested but inactive up to 15 μg/ml) | 11% | – | – | – |
| N#C/C(=C\c1ccc[nH]1)c1ccccc1Br [Compound 38] | 3.25 µg/mL | 30% | – | – | – |
| N#C/C(=C\c1ccc[nH]1)c1cccc(Br)c1 [Compound 39] | 0.938 µg/mL | 24% | – | – | – |
| N#C/C(=C\c1ccc[nH]1)c1ccc([N+](=O)[O-])cc1 [Compound 40] | — (the symbol ‘—’ indicates tested but inactive up to 15 μg/ml) | 6% | – | – | – |
| N#C/C(=C\c1ccc[nH]1)c1ccc(F)c(F)c1 [Compound 47] | 0.75 µg/mL | 17% | – | – | – |
| N#C/C(=C\c1ccc[nH]1)c1ccc(Cl)cc1F [Compound 48] | 2.5 µg/mL | 5% | – | – | – |
| CCOCn1cccc1/C=C(\C#N)c1ccc(F)cc1 [Compound 49] | 14 µg/mL | – | – | – | – |
| CCOCn1cccc1/C=C(\C#N)c1ccccc1C#N [Compound 50] | — (the symbol ‘—’ indicates tested but inactive up to 15 μg/ml) | – | – | – | – |

| SMILES | LD99 (Haemonchus contortus) | % Kill [1] | EC99 (Haemonchus contortus) | pest or weed control at 1.26 µg/cm2, 1.26 µg/cm2 [1] | LC50 [1] |
| --- | --- | --- | --- | --- | --- |
| CCOCn1cccc1/C=C(\C#N)c1ccc(Br)cc1 [Compound 51] | 7.5 µg/mL | – | – | – | – |
| CCOCn1cccc1/C=C(\C#N)c1c(Cl)cccc1Cl [Compound 52] | — (the symbol ‘—’ indicates tested but inactive up to 15 μg/ml) | – | – | – | – |
| CCOCn1cccc1/C=C(\C#N)c1ccc2ccccc2c1 [Compound 53, 2-(2-naphthyl)-3-(1-ethoxymethyl-1H-pyrrol-2-yl)acrylonitrile] | – | – | > 15 µg/mL | – | – |
| CCOCn1cccc1/C=C(\C#N)c1ccccc1Cl [Compound 54] | 7 µg/mL | – | – | – | – |
| CCOCn1cccc1/C=C(\C#N)c1ccccc1F [Compound 55] | — (the symbol ‘—’ indicates tested but inactive up to 15 μg/ml) | 10% | – | – | – |
| CCOCn1cccc1/C=C(\C#N)c1ccc(Cl)c(Cl)c1 [Compound 56] | 6.5 µg/mL | – | – | – | – |
| CCOCn1cccc1/C=C(\C#N)c1ccccc1C(F)(F)F [Compound 57] | — (the symbol ‘—’ indicates tested but inactive up to 15 μg/ml) | – | – | – | – |
| CCOCn1cccc1/C=C(\C#N)c1cccc(Br)c1 [Compound 58] | — (the symbol ‘—’ indicates tested but inactive up to 15 μg/ml) | – | – | – | – |
| CCOCn1cccc1/C=C(\C#N)c1cc(C(F)(F)F)cc(C(F)(F)F)c1 [Compound 59] | — (the symbol ‘—’ indicates tested but inactive up to 15 μg/ml) | – | – | – | – |
| CCOCn1cccc1/C=C(\C#N)c1ccc(F)cc1F [Compound 60] | — (the symbol ‘—’ indicates tested but inactive up to 15 μg/ml) | 19% | – | – | – |
| CCOCn1cccc1/C=C(\C#N)c1c(F)cccc1F [Compound 61] | — (the symbol ‘—’ indicates tested but inactive up to 15 μg/ml) | – | – | – | – |
| CCOCn1cccc1/C=C(\C#N)c1ccc(F)c(F)c1 [Compound 62] | 6 µg/mL | – | – | – | – |
| CCOCn1cccc1/C=C(\C#N)c1cccc(C)c1 [Compound 63] | 13 µg/mL | – | – | – | – |
| CCOCn1cccc1/C=C(\C#N)c1ccc(C)cc1 [Compound 64] | — (the symbol ‘—’ indicates tested but inactive up to 15 μg/ml) | 20% | – | – | – |
| CCOCn1cccc1/C=C(\C#N)c1cccc2ccccc12 [Compound 65, 2-(1-naphthyl)-3-(1-ethoxymethyl-1H-pyrrol-2-yl)acrylonitrile] | – | – | > 15 µg/mL | – | – |
| CC(C)=CCn1cccc1/C=C(\C#N)c1ccc(Cl)cc1 [Compound 80, (Z)-2-(4-chlorophenyl)-3-(1-(3-methylbut-2-enyl)-1H-pyrrol-2-yl)acrylonitrile] | – | – | > 15 µg/mL | – | – |
| Cc1ccc(S(=O)(=O)n2cccc2/C=C(\C#N)c2ccc(Cl)cc2)cc1 [Compound 83] | 12 µg/mL | – | – | – | – |
| N#C/C(=C\c1ccc[nH]1)c1ccccc1-c1ccccc1 [Compound 89] | – | 2% | – | – | – |
| N#C/C(=C\c1ccc[nH]1)c1ccccc1C(F)(F)F [Compound 90] | – | 14% | – | – | – |
| COc1ccccc1/C(C#N)=C/c1ccc[nH]1 [Compound 91] | – | 9% | – | – | – |

Reference: patent publication US7705038B2, “Control of parasites in animals by the use of parasiticidal 2-phenyl-3-(1H-pyrrol-2-yl)acrylonitrile derivatives” (Intervet, Inc., priority 2004, dated 2010)
